In US8378115B2, “Monomethine dyes” (Thermo Fisher Scientific (Milwaukee) LLC, priority 2007, dated 2013):

What was measured:
[1] = test system: 40mer dsDNA; test: Fluorescence enhancement of dye with 40mer dsDNA; type: binding
Experimental: (§1) Stock solutions (8 mM) of each dye were prepared by dissolving each compound in dimethylsulfoxide (DMSO). Stock dye solutions were diluted to a desired concentration in tris-EDTA (TE) buffer (10 mM Tris, 1 mM EDTA, pH 8.0) immediately prior to use.
(§2) Stock solutions of λDNA and 40mer synthetic oligonucleotides (dsDNA and ssDNA), each at a concentration of 40 μM, were prepared in TE buffer. All DNA concentrations described are in base pairs of nucleotides. The DNA stock solutions were diluted to a desired concentration in TE buffer before being mixed with diluted dye solutions.
(§3) Fluorescence enhancement measurements of each dye were obtained by incubating dyes with λDNA, 40mer dsDNA, or 40mer ssDNA at a final concentration of 0.8 μM dye and 3.2 μM DNA for one minute. Fluorescence scans of the samples were performed with excitation wavelengths corresponding to the absorption maxima of the dyes. The resulting fluorescence intensities were compared to fluorescence intensities of Thiazole Orange (TO) and a compound equivalent to SYBR Green without the side chain (V02-06101), shown below,
(§4) [drawing 15] binding to λDNA, 40mer dsDNA, or 40mer ssDNA at a final concentration of 0.8 μM TO and 3.2 μM DNA for one minute, the same as for the tested dyes. The discrimination ratio between dsDNA and ssDNA was calculated by comparing the fluorescence intensities.

[2] = Absorption spectra of dye alone; type: physicochemical; settings: for ε: in M-1·cm-1 (unit assumed)
Experimental: as §1
[…] […] Optical densities were determined at the absorbance maxima and the extinction coefficients were calculated using Beer's law.

[3] = test system: λDNA; test: Fluorescence enhancement of dye with λDNA; type: binding
Experimental: as §1, §2, §3, §4

[4] = test system: 40mer dsDNA; test: Fluorescence enhancement of dye with 40mer dsDNA; type: binding; remark: listed apart in the source
[5] = 0.8 μM dye, 3.2 μM DNA, one minute

λex ([2]; Ethanol): 520 nm
ε ([2]; Ethanol): 58,000
λex ([2]; TE Buffer, 8 μM dye): 499 nm
ε ([2]; TE Buffer, 8 μM dye): 20,444
SMILES: CCN(CC)c1ccc2c(/C=C3\Oc4ccccc4N3CC)cc(-c3ccccc3)[o+]c2c1 [Dye V02-06188]
Relative Fluorescent Intensity ([1]; 40-mer ds-DNA, TO = 1.0): 0.6
Ratio ds/ss ([1]; fluorescence 40-mer ds-DNA vs ss-DNA): 1.5
Fluorescence relative to TO [3, 5]: 0.6
Fluorescence λ DNA/ssDNA [3, 5]: 1.5
Ratio λ DNA/ss ([3]; fluorescence λ DNA vs ss-DNA): 2
Relative Fluorescent Intensity ([3]; λ DNA, TO = 1.0): 0.6
binding preference dsDNA over ssRNA [4]: slight preference for binding to dsDNA over binding to ssRNA
